Molecular target: Phospholipase A2 (Naja mossambica)
Test: Binding affinity against phospholipase A2 of Naja mocambique mocambique

Ki	SMILES
4 µM	CCCCCCCCNC(=O)Oc1cccc(OC(=O)NCCCCCCCC)c1 [Octyl-carbamic acid 3-octylcarbamoyloxy-phenyl ester]
15 µM	CCCCCCCCNC(=O)Oc1ccc(OC(=O)NCCCCCCCC)cc1 [Octyl-carbamic acid 4-octylcarbamoyloxy-phenyl ester]

Source: BindingDB's records for doi:10.1016/j.bmcl.2003.11.047 (National Chung-Hsing University, 2004)
